{"source": "patent US7459451B2", "about": "“Pyrazolopyridine derivatives” (Astellas Pharma Inc., priority 2004, dated 2008)", "key": {"[1]": {"molecular_target": "U937 Phosphodiesterase IV (PDE IV)", "assay": "Inhibition of U937 Phosphodiesterase IV (PDE IV)", "format": "biochemical", "conditions": "inhibitory activity on PDE-IV; enzyme preparation from U937 cells, [3H]cAMP SPA assay, CI-930 10 μM present", "description": "(a) Inhibition of U937 Phosphodiesterase IV (PDE IV)\nCultured U937 cells were washed twice and harvested with phosphate-buffered saline (PBS) by cell-scraper. After centrifugation, the cell pellet was suspended in homogenizing buffer (0.5% deoxycholate [DOC], 5 mM 2-mercaptoethanol, 1 μM leupeptin, 100 μM PMSF, 20 μM p-tosyl-L-lysine-chloromethyl ketone [TLCK] in PBS). The cell suspension was then sonicated for a couple of minutes and homogenized by a glass-Teflon homogenizer with twenty strokes. The homogenate was centrifuged at 200 g for 30 minutes, and the supernatant was further ultra-centrifuged at 100,000×g for 90 minutes (4° C.). The final supernatant was dialyzed against dialysis buffer, which was the same component as homogenizing buffer without DOC. The dialysate of enzyme preparation was stored at −20° C. until assay.\nPDE4, activity was estimated with a Phosphodiesterase [^3H]cAMP SPA Enzyme Assay System (Amersham Pharmacia Biotech), using a 96 well Opti-plate. Reactions were initiated by addition of 0.025 μCi/well of [^3H]cAMP to the enzyme mixture containing 50 mM Tris-HCl (pH 7.5), 8.3 mM MgCl2, 1.7 mM EGTA, and various concentrations of the test compound or vehicle. CI-930 (10 μM in final), a specific PDE3, inhibitor, was also added in the reaction mixture. After incubation at 30° C. for 15 minutes, 50 μL of SPA beads suspension was added to each well. The well-plate was then shaken for 20 minutes by a plate mixer. Radio-activity in each well was counted by a Top Counter.\nTest compounds were dissolved in 100% dimethylsulfoxide (DMSO) and diluted into respective concentrations with the final solution containing 1% v/v of DMSO.\nIC50 values of test compounds for the enzyme activity of PDE4 was determined from regression analysis for log-logit conversion values of percent inhibition in the compound-treated tubes compared to that of the control. Percent inhibition was calculated with the following equation: Inhibition (%)={1−(C−B)/(A−B)}×100; in which A, B and C means mean values of radio-activity counts (dpm) of control, blank and the compound-treated tubes, respectively."}, "[2]": {"system": "TNF-alpha production in rat peripheral blood mononuclear cells (PBMC)", "assay": "Inhibition on TNF-alpha production in rat mononuclear cells", "format": "cell-based", "conditions": "inhibitory activity on TNF-alpha production, LPS 1 μg/mL, 24 hours, ELISA", "description": "(b) Inhibition on TNF-alpha Production in Rat Mononuclear Cells 1. Test Method (1) Rat Peripheral Blood Mononuclear Cells (PBMC) Preparation\nMale Wistar rat at the age of 15 weeks was anesthetized with ether and the blood (about 15 ml) was collected with a disposable syringe from the abdominal artery under celiotomy. Collected blood was transferred to a heparin containing polyethylene tube and an equal volume of RPMI1640 was added to each tube. Diluted blood was then piled tip to 20 ml of Lympholyte-Rat (Cedarlane Laboratories, Canada) in polystyrene centrifuge tube. After centrifugation at 3,000 rpm for 30 minutes, cells gathering in the center area of the gradient were collected by capillary and washed with 40 mL of RPMI1640 by twice of centrifugation at 1,200 rpm for 10 minutes. Precipitate was then suspended in 10 ml of Tris-ammonium-chloride buffer and stood for 10 minutes in order to lyse remaining erythrocytes. After centrifugation at 1,200 rpm for 10 minutes, the precipitate was washed twice with 50 ml of RPMI1640 by centrifugation. PBMC finally precipitated were suspended in RPMI1640 containing 1% fetal bovine serum and antibiotics. After cell counting, final suspension at 3×10^6 cells/mL in culture medium was prepared.\n(2) TNF-alpha Production from Stimulated PBMCs\nRat PBMC prepared by the density gradient method using Lympholyte-Rat, were suspended in the culture medium mentioned above with the concentration of 3×10^6 cells/mL and 0.5 ml of the suspension was sowed into each well of a 24-well culture plate. Cells were incubated in the CO2 incubator for 24 hours with 0.25 ml of LPS in addition of 0.25 ml of concentrations of drugs or vehicle at the start of the incubation. Final concentration of LPS in the incubation medium was 1 μg/mL. After 24 hours, the supernatant of each well by centrifugation at 1,700 rpm for 10 minutes was stored at −80° C. until assay. TNF-alpha levels in the medium were measured by ELISA.\nThe IC50 values of drugs on cytokine productions in LPS stimulated PBMC were estimated by the regression analysis for the relative values of cytokine level in the drug-treated wells compared to those of the vehicle-treated ones."}}, "data": [{"smiles": "CCn1ncc2c(-c3cncc(C)c3)c(/C=C/C(=O)O)c(-c3ccccc3)nc21", "note": "[Example 91, (2E)-3-[1-Ethyl-4-(5-methyl-3-pyridyl)-6-phenyl-1H-pyrazolo[3,4-b]pyridin-5-yl]acrylic acid]", "values": [{"measurement": "IC50", "setting": "[1]", "value": "< 1000", "unit": "nM"}, {"measurement": "IC50", "setting": "[2]", "value": 15.7, "unit": "nM"}]}, {"smiles": "CCn1ncc2c(-c3cncc(C)c3)c(/C=C/C(=O)O)c(COCC3CCCCC3)nc21", "note": "[Example 89, (2E)-3-[6-[(Cyclohexylmethoxy)methyl]-1-ethyl-4-(5-methyl-3-pyridyl)-1H-pyrazolo[3,4-b]pyridin-5-yl]acrylic acid]", "values": [{"measurement": "IC50", "setting": "[1]", "value": "< 1000", "unit": "nM"}, {"measurement": "IC50", "setting": "[2]", "value": 85.6, "unit": "nM"}, {"measurement": "melting point", "value": "172 to 173", "unit": "°C"}]}, {"smiles": "CCn1ncc2c(-c3cncc(Br)c3)c(/C=C/C(=O)O)c(C)nc21", "note": "[Example 84, (2E)-3-[4-(5-Bromo-3-pyridyl)-1-ethyl-6-methyl-1H-pyrazolo[3,4-b]pyridin-5-yl]acrylic acid]", "values": [{"measurement": "IC50", "setting": "[1]", "value": "< 1000", "unit": "nM"}, {"measurement": "IC50", "setting": "[2]", "value": 62.7, "unit": "nM"}, {"measurement": "melting point", "value": "189 to 190", "unit": "°C"}]}, {"smiles": "CCn1ncc2c(-c3cncc(Br)c3)c(C#N)c(C)nc21", "note": "[Example 73, 4-(5-bromo-3-pyridyl)-1-ethyl-6-methyl-1H-pyrazolo[3,4-b]pyridine-5-carbonitrile]", "values": [{"measurement": "IC50", "setting": "[1]", "value": "< 1000", "unit": "nM"}, {"measurement": "IC50", "setting": "[2]", "value": 27, "unit": "nM"}, {"measurement": "melting point", "value": "165 to 166", "unit": "°C"}]}]}
